Legend:
Format in all cases: in vivo
[1] = system: Ryegrass, Italian (Italian ryegrass, Lolium multiflorum); test: Test A1 postemergence, Ryegrass, Italian; conditions: 0 to 100 scale (0 no effect, 100 complete control)
Summary of the method: (§1)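 Plants grown in pots of loam/sand mix; preemergence = soil-directed spray on seeded pots, postemergence = spray at 1–2 leaves, height 2–10 cm; test chemicals formulated in non-phytotoxic solvent with surfactant.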

[2] = system: Ryegrass, Italian (Italian ryegrass, Lolium multiflorum); test: Test A1 preemergence, Ryegrass, Italian
Summary of the method: (§2)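 Pre: seeds in loam/sand blend, directed soil spray. Post: potted plants, same soil, 2–10 cm, 1–2 leaf stage. Chemicals in non-phytotoxic solvent + surfactant for both.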

[3] = system: kochia (Bassia scoparia); test: Test A1 preemergence, kochia
Summary of the method: as §2

[4] = system: Foxtail, Giant (giant foxtail, Setaria faberi); test: Test A1 postemergence, Foxtail, Giant; conditions: 0 to 100 scale (0 no effect, 100 complete control)
Summary of the method: as §1

[5] = system: Pigweed, Palmer (palmer amaranth, palmer pigweed, Amaranthus palmeri); test: Test A1 postemergence, Pigweed, Palmer; conditions: 0 to 100 scale (0 no effect, 100 complete control)
Summary of the method: as §2

[6] = system: corn (Zea mays); test: Test A1 preemergence, corn
Summary of the method: as §2

[7] = system: ragweed (common ragweed, Ambrosia artemisiifolia); test: Test A1 preemergence, ragweed
Summary of the method: as §2

[8] = system: Pigweed, Palmer (palmer amaranth, palmer pigweed, Amaranthus palmeri); test: Test A1 preemergence, Pigweed, Palmer
Summary of the method: as §2

[9] = system: soybean (Glycine max); test: Test A1 postemergence, soybean; conditions: 0 to 100 scale (0 no effect, 100 complete control)
Summary of the method: as §1

[10] = system: blackgrass (Alopecurus myosuroides); test: Test A1 postemergence, blackgrass; conditions: 0 to 100 scale (0 no effect, 100 complete control)
Summary of the method: as §1

[11] = system: blackgrass (Alopecurus myosuroides); test: Test A1 preemergence, blackgrass
Summary of the method: as §2

[12] = system: ducksalad (Heteranthera limosa); test: Test B1 flooded paddy test, ducksalad; conditions: 250 g ai/ha, Flood, applied to paddy water, 2-leaf stage, visually evaluated after 10 to 14 days
Source text: (§3) A dash (-) response means no test result.

[13] = system: soybean (Glycine max); test: Test A1 preemergence, soybean
Summary of the method: as §2

[14] = system: Foxtail, Giant (giant foxtail, Setaria faberi); test: Test A1 preemergence, Foxtail, Giant
Summary of the method: as §2

[15] = system: goosegrass (Eleusine indica); test: Test A1 postemergence, goosegrass; conditions: 0 to 100 scale (0 no effect, 100 complete control)
Summary of the method: as §1

[16] = system: horseweed (Erigeron canadensis); test: Test A1 postemergence, horseweed; conditions: 0 to 100 scale (0 no effect, 100 complete control)
Summary of the method: as §1

[17] = system: wheat (Triticum aestivum); test: Test A1 postemergence, wheat; conditions: 0 to 100 scale (0 no effect, 100 complete control)
Summary of the method: as §1

[18] = system: kochia (Bassia scoparia); test: Test A1 postemergence, kochia; conditions: 0 to 100 scale (0 no effect, 100 complete control)
Summary of the method: as §1

[19] = system: wheat (Triticum aestivum); test: Test A1 preemergence, wheat
Summary of the method: as §2

[20] = system: corn (Zea mays); test: Test A1 postemergence, corn; conditions: 0 to 100 scale (0 no effect, 100 complete control)
Summary of the method: as §2

[21] = system: barnyardgrass (Echinochloa crus-galli); test: Test B1 flooded paddy test, barnyardgrass; conditions: 250 g ai/ha, Flood, applied to paddy water, 2-leaf stage, visually evaluated after 10 to 14 days
Source text: as §3

[22] = system: ragweed (common ragweed, Ambrosia artemisiifolia); test: Test A1 postemergence, ragweed; conditions: 0 to 100 scale (0 no effect, 100 complete control)
Summary of the method: as §2

[23] = system: galium (catchweed bedstraw, Galium aparine); test: Test A1 postemergence, galium; conditions: 0 to 100 scale (0 no effect, 100 complete control)
Summary of the method: as §1

[24] = system: rice (Oryza sativa); test: Test B1 flooded paddy test, rice; conditions: 250 g ai/ha, Flood, applied to paddy water, 2-leaf stage, visually evaluated after 10 to 14 days
Source text: as §3

[25] = system: Oat, Wild (wild oat, Avena fatua); test: Test A1 preemergence, Oat, Wild
Summary of the method: as §2

[26] = system: Oat, Wild (wild oat, Avena fatua); test: Test A1 postemergence, Oat, Wild; conditions: 0 to 100 scale (0 no effect, 100 complete control)
Summary of the method: as §2

[27] = system: goosegrass (Eleusine indica); test: Test A1 preemergence, goosegrass
Summary of the method: as §2

[28] = Postemergence, 125 g ai/ha, 10 days
[29] = 31 g ai/ha, 0 to 100 scale (0 no effect, 100 complete control)
[30] = 125 g ai/ha, 0 to 100 scale, 0 no effect, 100 complete control

Cc1cc(C)c(N(COC(=O)C(C)(C)C)S(=O)(=O)C(F)(F)F)cc1N1CCC2(CCC(C(F)(F)F)CC2)C1=O (stereo not drawn) [Compound 403]
Ryegrass, Italian plant response rating ([1]; 31 g ai/ha, postemergence): 0 | Plant response rating, Ryegrass, Italian [1, 28]: 0 | Plant response rating, Ryegrass, Italian [2, 29]: 30 | Plant response rating, Ryegrass, Italian [2, 30]: 30 | Plant response rating, Kochia [3, 29]: 0 | Plant response rating, Kochia [3, 30]: 0 | Foxtail, Giant plant response rating ([4]; 31 g ai/ha, postemergence): 0 | Plant response rating, Foxtail, Giant [4, 28]: 0 | Pigweed, Palmer plant response rating ([5]; 31 g ai/ha, postemergence): 0 | Plant response rating, Pigweed, Palmer [5, 28]: 30 | Plant response rating, Corn [6, 29]: 0 | Plant response rating, Corn [6, 30]: 10 | Plant response rating, Ragweed [7, 29]: 0 | Plant response rating, Ragweed [7, 30]: 20 | Plant response rating, Pigweed, Palmer [8, 29]: 0 | Plant response rating, Pigweed, Palmer [8, 30]: 0 | Soybean plant response rating ([9]; 31 g ai/ha, postemergence): 50 | Plant response rating, Soybean [9, 28]: 60 | Blackgrass plant response rating ([10]; 31 g ai/ha, postemergence): 0 | Plant response rating, Blackgrass [10, 28]: 0 | Plant response rating, Blackgrass [11, 29]: 0 | Plant response rating, Blackgrass [11, 30]: 0 | Plant response rating, Ducksalad (0 to 100 scale, 0 is no effect, 100 is complete control) [12]: 15 | Plant response rating, Soybean [13, 29]: 0 | Plant response rating, Soybean [13, 30]: 0 | Plant response rating, Foxtail, Giant [14, 29]: 0 | Plant response rating, Foxtail, Giant [14, 30]: 10 | Goosegrass plant response rating ([15]; 31 g ai/ha, postemergence): 0 | Plant response rating, Goosegrass [15, 28]: 50 | Horseweed plant response rating ([16]; 31 g ai/ha, postemergence): 0 | Plant response rating, Horseweed [16, 28]: 30 | Wheat plant response rating ([17]; 31 g ai/ha, postemergence): 0 | Plant response rating, Wheat [17, 28]: 0 | Kochia plant response rating ([18]; 31 g ai/ha, postemergence): 10 | Plant response rating, Kochia [18, 28]: 40 | Plant response rating, Wheat [19, 29]: 0 | Plant response rating, Wheat [19, 30]: 0 | Corn plant response rating ([20]; 31 g ai/ha, postemergence): 0 | Plant response rating, Corn [20, 28]: 0 | Plant response rating, Barnyardgrass (0 to 100 scale, 0 is no effect, 100 is complete control) [21]: 0 | Ragweed plant response rating ([22]; 31 g ai/ha, postemergence): 0 | Plant response rating, Ragweed [22, 28]: 50 | Galium plant response rating ([23]; 31 g ai/ha, postemergence): 70 | Plant response rating, Galium [23, 28]: 100 | Plant response rating, Rice (0 to 100 scale, 0 is no effect, 100 is complete control) [24]: 0 | Plant response rating, Oat, Wild [25, 29]: 0 | Plant response rating, Oat, Wild [25, 30]: 10 | Oat, Wild plant response rating ([26]; 31 g ai/ha, postemergence): 0 | Plant response rating, Oat, Wild [26, 28]: 30 | Plant response rating, Goosegrass [27, 29]: 0 | Plant response rating, Goosegrass [27, 30]: 0
